Data published in patent US20220298541A1, “ASSAY FOR DETERMINING TARGET ENGAGEMENT IN REAL-TIME IN LIVING SYSTEMS” (Indian Institute of Science Education and Research, priority 2021, published 2022).
Values belong to the compound of their own block, whether it stands above or below them. Residues, ends and D or L forms follow the SMILES beside them. *: point of attachment. Cbz = O=C(OCc1ccccc1)*; CH2F = FC*

Key:
caspase-3 [1] = molecular target: T1, caspase-3 (Homo sapiens, UniProt P42574); assay: Screening protease inhibitors by BRET-approach of AbRGT in 96 well plates, caspase-3 RLuc transfected MCF-7 cells; format: cell-based
T1 construct: expressed in transfected cells; host or cells: MCF-7 (caspase-3 null); 2 in A4
T1 sequence (P42574 29-175 limits assumed): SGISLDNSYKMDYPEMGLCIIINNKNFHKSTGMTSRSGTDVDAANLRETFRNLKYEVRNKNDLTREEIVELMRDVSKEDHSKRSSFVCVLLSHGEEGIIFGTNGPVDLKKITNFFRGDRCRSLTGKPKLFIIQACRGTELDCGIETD
T1 sequence (P42574 176-277 limits assumed): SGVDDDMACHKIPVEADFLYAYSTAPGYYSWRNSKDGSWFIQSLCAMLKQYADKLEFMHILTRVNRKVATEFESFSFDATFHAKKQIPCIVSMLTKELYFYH
Description: To show BRET-approach of AbRGT can be used for the high-throughput screening of inhibitors four different inhibitors; Z-VAD-FMK, C-inhibitor-II, E-64, and Q-VD-OPh were selected. Z-VAD-FMK, E-64, and Q-VD-OPh are irreversible inhibitors, while cpm-VAD-CHO is a reversible inhibitor. Z-VAD-FMK and Q-VD-OPh are widely known pan-caspase inhibitors that inhibit caspases with a different mechanism.
For inhibitor screening in a high-throughput format, caspase-3 RLuc transfected MCF-7 cells in 96 well plates were treated with STS (1 μM) for 4 h. Subsequently, after STS treatment, cells were incubated with Z-VAD-FMK or E64 or Q-VD-OPh inhibitors at two different concentrations (25 or 50 μM) for 1 h. Cells were then labeled with the Rh-VAD-FMK probe for 1 h, followed by the addition of coelenterazine h. Immediately after coelenterazine h addition, average radiance was recorded in the donor emission and the acceptor emission channel. The BRET measurements were done by calculating the mBRET values of each sample.

caspase-3 [2] = assay: Quantification of caspase-3 activation using BRET-approach of AbRGT in MCF-7 cells transiently transfected with pCMV-caspase-3-GGSRLuc 8.6; format: cell-based, human; conditions: STS 1 μM for 4 h; transiently transfected MCF-7 cells; Rh-VAD-FMK probe; untreated control 11±9.2
Procedure: To determine the specific caspase-3 activation, pCMV-caspase-3-GGSRLuc 8.6 plasmid was overexpressed in the MCF-7 cell line since it is caspase-3 null. The cells were subjected to treatment with Staurosporine (STS) (1 μM) for 4 h for the induction of apoptosis. […] Subsequently, cells were incubated with ABFP, Rh-VAD-FMK probe (BRET acceptor) for the labeling of PoI, and other proteases of the same family. The RLuc 8.6 substrate coelenterazine h was added to the cells, and the average radiance was recorded in the donor emission channel, RLuc 8.6 (520-540 nm), and the acceptor emission channel, rhodamine (580-600 nm) channel. The BRET measurements were done by calculating the mBRET values for the STS treated versus untreated samples using the following equation.^7 Here, acceptor and donor is represented by (A) and (D), respectively.

caspase-3 [3] = assay: Quantification of caspase-3 activation in Caspase-3 RLuc expressing stable MCF-7 clone no. 2 by BRET-approach of AbRGT; format: cell-based, human
Procedure: Luciferase activity in the MCF7 Caspase3-GGS-RLuc8.6 clone no. 2, 3, 4 was measured by the addition of luciferase substrate, coelentrazine. Immediately after substrate addition, average radiance value was recorded and plotted as a bar graph (FIG. 4.8). […] The caspase-3 activity in the clone 2 cells further quantified by the BRET-approach of AbRGT. MCF-7 Caspase3-GGS-RLuc8.6 clone no. 2 cells were treated with increasing concentration (0, 50, 100, and 200 nM) of STS for 4 h. Subsequently, cells were incubated with Rh-VAD-FMK probe for 1 h followed by the addition of coelentrazine h. Immediately after substrate addition, average radiance was recorded at donor and acceptor filters and the mBRET values were calculated and plotted as a bar graph (FIG. 9).

caspase-3 [4] = molecular target: T1, caspase-3; assay: Effect of protease inhibitor on STS dependent caspase activation (BRET based AbRGT, Rh-VAD-FMK probe); format: cell-based; conditions: STS 0-4 μM followed by 1 h treatment with 50 μM Z-VAD-FMK; transiently transfected cells
Procedure: To check the effect of protease inhibitor Z-VAD-FMK on caspase activation, the pCMV-caspase-3-GGS-RLuc8.6 transiently transfected cells were treated with increasing concentration of STS(0-4 μM) followed by 1 h treatment of 50 μM of Z-VAD-FMK. The caspase3 activation was checked by BRET based AbRGT approach by using Rh-VAD-FMK probe. […] Thus we can use the BRET-approach of AbRGT to screen caspase inhibitors and activators. (FIG. 6).

- mBRET values as compared to Z-VAD-FMK inhibitor (caspase-3 [1]; STS 1 μM 4 h, then inhibitor 25 or 50 μM for 1 h): higher
Compound: CC(C)[C@H](NC(=O)c1ccc2ccccc2n1)C(=O)N[C@@H](CC(=O)O)C(=O)COc1c(F)cccc1F [Q-VD-OPh]

Compound: CN[C@@H]1C[C@H]2O[C@@](C)([C@@H]1OC)n1c3ccccc3c3c4c(c5c6ccccc6n2c5c31)C(=O)NC4 [STS, Staurosporine]
- mBRET value (indirect readout of specific caspase-3 activation) (caspase-3 [2]): 60±0.4
- mBRET value of the sample in the absence of inhibitor (caspase-3 [1]; STS 1 μM for 4 h, no inhibitor, 96 well plate): 60±0.4
- change of mBRET values with increasing STS concentration (caspase-3 [3]; 0, 50, 100 and 200 nM STS for 4 h, clone no. 2): increase
- increase in mBRET as compared to the untreated cells (caspase-3 [3]; 200 nM STS for 4 h, MCF-7 Caspase3-GGS-RLuc8.6 clone no. 2): ~4 fold

- effect on caspase activation in presence of STS compared to only STS treated cells (caspase-3 [4]): inhibits the caspase activation
Compound: COC(=O)C[C@H](NC(=O)[C@H](C)NC(=O)[C@@H](NC(=O)OCc1ccccc1)C(C)C)C(=O)CF [Z-VAD-FMK] (Cbz-Val-Ala-Asp(OMe)-CH2F)
